Experimental data reported in US5856318A (priority 1997, dated 1999).

Columns and labels:
sigma receptor = molecular target: T1, sigma receptor (Cavia porcellus, UniProt Q60492); type: binding, guinea pig; conditions: read-out: Ki([3H](+)-Pent)
T1 construct: Crude P2 membrane fractions were prepared from frozen; tissue Pel-Freeze, Rogers, Ark; (frozen guinea pig brains); host or cells: guinea pig brain minus cerebella, crude synaptosomal (P2) membranes

NMDA receptor = conditions: C. Carter et al, J. Pharm Exp. Ther. 1988; cited from earlier work

T1 sequence (Q60492 whole entry): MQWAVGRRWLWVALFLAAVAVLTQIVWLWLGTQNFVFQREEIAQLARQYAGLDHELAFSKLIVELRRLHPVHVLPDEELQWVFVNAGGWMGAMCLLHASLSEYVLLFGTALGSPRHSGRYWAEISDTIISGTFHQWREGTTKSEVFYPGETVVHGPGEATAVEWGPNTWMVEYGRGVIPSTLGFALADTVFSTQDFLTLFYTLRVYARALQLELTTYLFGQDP

Ki (sigma receptor) [nM] | Compound | NMDA receptor antagonism (NMDA receptor)
3.56 ± 1.56 | Clc1ccc(CCN2CCCC(N3CCCC3)C2)cc1Cl (stereo not drawn) [Compound No. 1, 3-(1-Pyrrolidinyl)-1-[2-(3,4-dichlorophenyl)ethyl]piperidine] | 
 | CC(C(O)c1ccc(O)cc1)N1CCC(Cc2ccccc2)CC1 (stereo not drawn) [ifenprodil] | non-competitive NMDA receptor antagonists
 | 1-(4-chlorophenyl)-2-[1-(4-fluorophenyl)-piperidinyl]ethanol | non-competitive NMDA receptor antagonists
